According to PubChem BioAssay AID1918993 (Molecular Pharmacology Branch, DTP, NCI, 2023):
“And” between values parts separate entries of the source, which are not always exact repeats. Equal entries are not always repeated.

System: 233499-124-R-J3-PDC complex spheroid growth
Experiment: Anticancer human tumor 233499-124-R-J3-PDC patient-derived colon adenocarcinoma cell line growth inhibition [AhR]
Conditions: for viability, T/C: stronger effect = lower value
In short: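 Complex tumor spheroids co-cultured with HUVEC and human MSC stroma; AhR antagonists tested in combination with standard-of-care and investigational agents. Top concentration at or near clinical Cmax (else 10 microM), half-log dilutions; growth expressed as percent test/control.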

[1] = curve of first compound, second compound 0.1 µM
[2] = curve of first compound, second compound 0.316 µM
[3] = curve of first compound, second compound 1 µM
[4] = curve of first compound, second compound 3.16 µM
[5] = curve of first compound, second compound 10 µM
[6] = second compound 0.1 µM, first compound 0.00949 µM
[7] = second compound 0.1 µM, first compound 0.03 µM
[8] = second compound 0.1 µM, first compound 0.0949 µM
[9] = second compound 0.1 µM, first compound 0.3 µM
[10] = second compound 0.316 µM, first compound 0.00949 µM
[11] = second compound 0.316 µM, first compound 0.03 µM
[12] = second compound 0.316 µM, first compound 0.0949 µM
[13] = second compound 0.316 µM, first compound 0.3 µM
[14] = second compound 1 µM, first compound 0.00949 µM
[15] = second compound 1 µM, first compound 0.03 µM
[16] = second compound 1 µM, first compound 0.0949 µM
[17] = second compound 1 µM, first compound 0.3 µM
[18] = second compound 3.16 µM, first compound 0.00949 µM
[19] = second compound 3.16 µM, first compound 0.03 µM
[20] = second compound 3.16 µM, first compound 0.0949 µM
[21] = second compound 3.16 µM, first compound 0.3 µM
[22] = second compound 10 µM, first compound 0.00949 µM
[23] = second compound 10 µM, first compound 0.03 µM
[24] = second compound 10 µM, first compound 0.0949 µM
[25] = second compound 10 µM, first compound 0.3 µM
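Further: spheroids exposed to agents for seven days before reading.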

CC1COCCN1c1cc(C2(S(C)(=N)=O)CC2)nc(-c2ccnc3[nH]ccc23)n1 (configuration not stated) + Cc1ccccc1N=Nc1ccc(NC(=O)c2ccnn2C)c(C)c1
IC50 [1]: > 10 µM
IC50 [2]: > 10 µM
IC50 [3]: > 10 µM
IC50 [4]: > 10 µM
IC50 [5]: > 10 µM
viability, T/C (second compound 0.1 µM, first compound 0.0316 µM): 103%
viability, T/C (second compound 0.1 µM, first compound 0.1 µM): 112%
viability, T/C (second compound 0.1 µM, first compound 0.316 µM): 91.2%
viability, T/C (second compound 0.1 µM, first compound 1 µM): 97.8%
viability, T/C (second compound 0.1 µM, first compound 3.16 µM): 88.8%
viability, T/C (second compound 0.1 µM, first compound 10 µM): 91%
viability, T/C (second compound 0.316 µM, first compound 0.0316 µM): 113%
viability, T/C (second compound 0.316 µM, first compound 0.1 µM): 107%
viability, T/C (second compound 0.316 µM, first compound 0.316 µM): 94.5%
viability, T/C (second compound 0.316 µM, first compound 1 µM): 99.7%
viability, T/C (second compound 0.316 µM, first compound 3.16 µM): 96.6%
viability, T/C (second compound 0.316 µM, first compound 10 µM): 85%
viability, T/C (second compound 1 µM, first compound 0.0316 µM): 103%
viability, T/C (second compound 1 µM, first compound 0.1 µM): 100%
viability, T/C (second compound 1 µM, first compound 0.316 µM): 104%
viability, T/C (second compound 1 µM, first compound 1 µM): 97.6%
viability, T/C (second compound 1 µM, first compound 3.16 µM): 77.7%
viability, T/C (second compound 1 µM, first compound 10 µM): 74.2%
viability, T/C (second compound 3.16 µM, first compound 0.0316 µM): 112%
viability, T/C (second compound 3.16 µM, first compound 0.1 µM): 110%
viability, T/C (second compound 3.16 µM, first compound 0.316 µM): 105%
viability, T/C (second compound 3.16 µM, first compound 1 µM): 101%
viability, T/C (second compound 3.16 µM, first compound 3.16 µM): 99.7%
viability, T/C (second compound 3.16 µM, first compound 10 µM): 84.1%
viability, T/C (second compound 10 µM, first compound 0.0316 µM): 108%
viability, T/C (second compound 10 µM, first compound 0.1 µM): 107%
viability, T/C (second compound 10 µM, first compound 0.316 µM): 118%
viability, T/C (second compound 10 µM, first compound 1 µM): 106%
viability, T/C (second compound 10 µM, first compound 3.16 µM): 109%
viability, T/C (second compound 10 µM, first compound 10 µM): 77.8%

CCc1c2c(nc3ccc(O)cc13)-c1cc3c(c(=O)n1C2)COC(=O)[C@]3(O)CC + Cc1cncc(-c2nc(NCCc3c[nH]c4ccccc34)c3ncn(C(C)C)c3n2)c1
IC50 [1]: > 0.3 µM
IC50 [2]: > 0.3 µM
IC50 [3]: > 0.3 µM
IC50 [4]: > 0.3 µM
IC50 [5]: < 0.000949 µM
viability, T/C (second compound 0.1 µM, first compound 0.000949 µM): 97%
viability, T/C (second compound 0.1 µM, first compound 0.003 µM): 99.5%
viability, T/C [6]: 77.6%
viability, T/C [7]: 77.5%
viability, T/C [8]: 71.1%
viability, T/C [9]: 91.8%
viability, T/C (second compound 0.316 µM, first compound 0.000949 µM): 101%
viability, T/C (second compound 0.316 µM, first compound 0.003 µM): 89.9%
viability, T/C [10]: 71.9%
viability, T/C [11]: 67.2%
viability, T/C [12]: 66.4%
viability, T/C [13]: 67.6%
viability, T/C (second compound 1 µM, first compound 0.000949 µM): 86.4%
viability, T/C (second compound 1 µM, first compound 0.003 µM): 89.1%
viability, T/C [14]: 70%
viability, T/C [15]: 81%
viability, T/C [16]: 94.3%
viability, T/C [17]: 64.3%
viability, T/C (second compound 3.16 µM, first compound 0.000949 µM): 90%
viability, T/C (second compound 3.16 µM, first compound 0.003 µM): 96.2%
viability, T/C [18]: 72.3%
viability, T/C [19]: 86.1%
viability, T/C [20]: 70%
viability, T/C [21]: 65.3%
viability, T/C (second compound 10 µM, first compound 0.000949 µM): 10.4%
viability, T/C (second compound 10 µM, first compound 0.003 µM): 13.7%
viability, T/C [22]: 21.5%
viability, T/C [23]: 17%
viability, T/C [24]: 9.13%
viability, T/C [25]: 7.22%

O=C(C=Cn1cnc(-c2cc(C(F)(F)F)cc(C(F)(F)F)c2)n1)NNc1cnccn1 + Cc1cncc(-c2nc(NCCc3c[nH]c4ccccc34)c3ncn(C(C)C)c3n2)c1
IC50 [1]: > 3 µM
IC50 [2]: > 3 µM
IC50 [3]: > 3 µM
IC50 [4]: > 3 µM
IC50 [5]: < 0.00949 µM
viability, T/C [6]: 99.6%
viability, T/C [7]: 108%
viability, T/C [8]: 102%
viability, T/C [9]: 89.3%
viability, T/C (second compound 0.1 µM, first compound 0.949 µM): 100%
viability, T/C (second compound 0.1 µM, first compound 3 µM): 68.2%
viability, T/C [10]: 98.5%
viability, T/C [11]: 94.9%
viability, T/C [12]: 95.7%
viability, T/C [13]: 106%
viability, T/C (second compound 0.316 µM, first compound 0.949 µM): 53.5%
viability, T/C (second compound 0.316 µM, first compound 3 µM): 54%
viability, T/C [14]: 88.5%
viability, T/C [15]: 80.9%
viability, T/C [16]: 99.1%
viability, T/C [17]: 96.3%
viability, T/C (second compound 1 µM, first compound 0.949 µM): 74%
viability, T/C (second compound 1 µM, first compound 3 µM): 58.3%
viability, T/C [18]: 76.3%
viability, T/C [19]: 81.6%
viability, T/C [20]: 93.2%
viability, T/C [21]: 87%
viability, T/C (second compound 3.16 µM, first compound 0.949 µM): 60.7%
viability, T/C (second compound 3.16 µM, first compound 3 µM): 59.6%
viability, T/C [22]: 21.2%
viability, T/C [23]: 35.3%
viability, T/C [24]: 30.8%
viability, T/C [25]: 22%
viability, T/C (second compound 10 µM, first compound 0.949 µM): 28.9%
viability, T/C (second compound 10 µM, first compound 3 µM): 25.1%

CCc1c2c(nc3ccc(O)cc13)-c1cc3c(c(=O)n1C2)COC(=O)[C@]3(O)CC
viability, T/C (compound 0.000949 µM): 117% and 96.2% and 99.4%
viability, T/C (compound 0.003 µM): 93.8% and 87.6% and 85.8%
viability, T/C (compound 0.00949 µM): 89.5% and 85.3% and 77.4%
viability, T/C (compound 0.03 µM): 69.6% and 75.1% and 56.9%
viability, T/C (compound 0.0949 µM): 84.1% and 84% and 77.8%
viability, T/C (compound 0.3 µM): 98.5% and 95.3% and 73.3%
IC50 (curve of compound): > 0.3 µM
